Earlier results in patent US20080058318A1 (priority 2006, published 2008).
Where a name gives a salt, the structure may show the parent alone.

Tested on: fibromyalgia patients
Conditions: cited from earlier work

CCN(CC)C(=O)C1(c2ccccc2)CC1CN (racemic) [milnacipran, Z-2-aminomethyl-1-phenyl-N,N-diethylcyclopropanecarboxamide hydrochloride]
Deaths or serious adverse events associated with treatment (Phase II study): no deaths or serious adverse events | Patients with adverse events from elevation in hepatic enzymes (milnacipran-treated patients): 2%
